From US20180008587A1, “THIOHYDANTOIN ANDROGEN RECEPTOR ANTAGONISTS FOR THE TREATMENT OF CANCER” (Jaressen Pharmaceutica NV, priority 2016, published 2018)
Where a chain is given by its changes, count along the chain named. Where two headings read alike, the source gives them in different places.

Assays:
Type in all cases: cell-based
[1] = molecular target: T1, F876L mutant Androgen Receptor (AR-F876L) (Homo sapiens, UniProt P10275, F877L); test: LNCaP-AR-F876L ANT reporter assay (ARE firefly luciferase, antagonist mode); details: for Emax: read-out: LNCaP-AR-F876L ANT MAX % Inh; for IC50: read-out: LNCaP-AR-F876L ANT pIC50 (converted)
T1 construct: expressed in transfected cells; host or cells: LNCaP (LNCaP F876L)
T1 sequence (P10275 1-920 F877L): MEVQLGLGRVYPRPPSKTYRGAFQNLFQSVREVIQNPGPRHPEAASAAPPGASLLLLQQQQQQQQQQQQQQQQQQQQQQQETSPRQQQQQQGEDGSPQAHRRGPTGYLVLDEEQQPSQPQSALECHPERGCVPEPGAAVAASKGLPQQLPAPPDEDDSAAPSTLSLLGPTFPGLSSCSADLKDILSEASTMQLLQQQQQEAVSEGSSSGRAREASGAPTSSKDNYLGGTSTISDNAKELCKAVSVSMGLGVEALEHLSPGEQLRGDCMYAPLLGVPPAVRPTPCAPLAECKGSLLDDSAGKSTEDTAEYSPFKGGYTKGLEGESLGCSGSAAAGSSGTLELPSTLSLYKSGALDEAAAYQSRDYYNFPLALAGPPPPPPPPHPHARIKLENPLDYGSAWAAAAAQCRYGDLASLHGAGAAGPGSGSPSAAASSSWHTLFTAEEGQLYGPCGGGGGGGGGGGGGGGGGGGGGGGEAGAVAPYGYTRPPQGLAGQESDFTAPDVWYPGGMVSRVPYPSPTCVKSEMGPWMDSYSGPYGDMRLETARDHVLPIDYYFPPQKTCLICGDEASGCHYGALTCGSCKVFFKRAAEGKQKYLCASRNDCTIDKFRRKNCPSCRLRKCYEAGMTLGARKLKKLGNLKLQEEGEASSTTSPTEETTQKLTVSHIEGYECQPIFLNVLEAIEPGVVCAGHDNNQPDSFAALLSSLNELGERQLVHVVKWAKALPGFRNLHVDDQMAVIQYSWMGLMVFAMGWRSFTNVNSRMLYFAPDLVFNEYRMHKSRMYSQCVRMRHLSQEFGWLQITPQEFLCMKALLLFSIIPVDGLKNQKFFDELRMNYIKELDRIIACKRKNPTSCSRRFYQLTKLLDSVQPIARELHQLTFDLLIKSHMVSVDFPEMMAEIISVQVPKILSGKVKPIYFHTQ
Procedure: (§1) A stable pooled-population cell line was generated using puromycin (Life Technologies) selection at 1:10,000 v/v. The protocol below was used for both cell lines and for testing of the compounds of Formula (I) of the present invention.
(§2) LNCaP cells were grown to about 80% confluence, media removed and cells rinsed in Hank's balanced salt solution prior to separation from the plate with 0.05% Trypsin EDTA. Cells were lifted and trypsin negated in complete CSS (charcoal stripped serum) culture media. […] Agonist challenge was at 400 pM for WT assay and 600 pM for F876L assay. Plates containing cells and compounds herein were incubated for a further 20-24 hours at 37° C., 5% CO2 before addition of 40 μL/well of Steady-Glo Luciferase Assay System Reagent (Promega# E2520). After 1 h, plates were read for luminescence on a BMG Pherastar.
(§3) EC/IC50 calculations were achieved utilizing calculated RLU data and data fitting macros. Data were fit using least-squares methods to the following formula: […]

[2] = molecular target: T2, wild-type Androgen Receptor (AR-wt) (Homo sapiens, UniProt P10275); test: LNCaP-AR-wt ANT reporter assay (ARE firefly luciferase, antagonist mode); details: for IC50: antagonist mode, 400 pM R-1881 challenge, −Log10(IC50 [Molar]), read-out: LNCaP-AR-wt ANT pIC50 (converted); for Emax: read-out: LNCaP-AR-wt ANT MAX % Inh
T2 construct: expressed in transfected cells; host or cells: LNCaP (LNCaP AR (cs))
T2 sequence (P10275 1-920): T1 sequence (P10275 1-920 F877L) with L877F
Procedure: as §1, §2, §3

[3] = molecular target: T1, F876L mutant Androgen Receptor (AR-F876L); test: LNCaP-AR-F876L AG reporter assay (ARE firefly luciferase, agonist mode); details: for Emax: read-out: LNCaP-AR-F876L AG MAX % Stim
Procedure: as §1, §2, §3

[4] = molecular target: T2, wild-type Androgen Receptor (AR-wt); test: LNCaP-AR-wt AG reporter assay (ARE firefly luciferase, agonist mode); details: for Emax: read-out: LNCaP-AR-wt AG MAX % Stim
Procedure: as §1, §2, §3

[5] = maximum % inhibition of R1881 control response over tested concentration range
[6] = agonist mode, −Log10(EC50 [Molar]), read-out: LNCaP-AR-F876L AG pEC50 (converted)
[7] = maximum % stimulation (agonist response) over tested concentration range
[8] = agonist mode, −Log10(EC50 [Molar]), read-out: LNCaP-AR-wt AG pEC50 (converted)

SMILES	Emax [1, 5] [%]	IC50 [1] [nM]	IC50 [2] [nM]	Emax [2, 5] [%]	EC50 [3, 6] [nM]	Emax [3, 7] [%]	EC50 [4, 8] [nM]	Emax [4, 7] [%]	Emax [1] [%]	Emax [2] [%]	EC50 [3] [nM]	Emax [3] [%]	EC50 [4] [nM]	Emax [4] [%]
N#Cc1ncc(N2C(=O)C3(CCC3)N(c3ccc(OCCN4CCCC4)c(F)c3)C2=S)cc1C(F)(F)F [Cpd 66, 5-[8-[3-fluoro-4-(2-pyrrolidin-1-ylethoxy)phenyl]-5-oxo-7-thioxo-6,8-diazaspiro[3.4]octan-6-yl]-3-(trifluoromethyl)pyridine-2-carbonitrile]	96.2	603	1150	98.9	> 15100	0.1	> 15100	0.6	–	–	–	–	–	–
N#Cc1ncc(N2C(=O)C3(CCC3)N(c3ccc(C(=O)NCc4ccco4)c(F)c3)C2=S)cc1C(F)(F)F [Cpd 76, 4-[6-[6-cyano-5-(trifluoromethyl)-3-pyridyl]-5-oxo-7-thioxo-6,8-diazaspiro[3.4]octan-8-yl]-2-fluoro-N-(2-furylmethyl)benzamide]	91.6	851	1450	97.8	> 15100	1	> 15100	1.9	–	–	–	–	–	–
N#Cc1ncc(N2C(=O)C3(CCC3)N(c3ccc(C(=O)NCc4ccccc4)c(F)c3)C2=S)cc1C(F)(F)F [Cpd 36, N-benzyl-4-[6-[6-cyano-5-(trifluoromethyl)-3-pyridyl]-5-oxo-7-thioxo-6,8-diazaspiro[3.4]octan-8-yl]-2-fluoro-benzamide]	–	851	1480	–	–	–	–	–	91.3	96.1	> 15100	0.3	> 15100	0.9
N#Cc1ncc(N2C(=O)C3(CCC3)N(c3ccc(C(=O)NCCCN4CCOCC4)c(F)c3)C2=S)cc1C(F)(F)F [Cpd 72, 4-[6-[6-cyano-5-(trifluoromethyl)-3-pyridyl]-5-oxo-7-thioxo-6,8-diazaspiro[3.4]octan-8-yl]-2-fluoro-N-(3-morpholinopropyl)benzamide]	–	102	251	–	–	–	–	–	101	102	> 15100	0.6	> 15100	0.3
N#Cc1ncc(N2C(=O)C3(CCC3)N(c3ccc(C(=O)NCc4ccccn4)c(F)c3)C2=S)cc1C(F)(F)F [Cpd 44, 4-[6-[6-cyano-5-(trifluoromethyl)-3-pyridyl]-5-oxo-7-thioxo-6,8-diazaspiro[3.4]octan-8-yl]-2-fluoro-N-(2-pyridylmethyl)benzamide]	–	178	195	–	–	–	–	–	101	103	> 15100	0	> 15100	-0.2
N#Cc1ncc(N2C(=O)C3(CCC3)N(c3ccccc3)C2=S)cc1C(F)(F)F [Cpd 70, 5-(5-oxo-8-phenyl-7-thioxo-6,8-diazaspiro[3.4]octan-6-yl)-3-(trifluoromethyl)pyridine-2-carbonitrile]	–	513	741	–	–	–	–	–	99.5	99.2	> 15100	0.9	> 15100	0.3
N#Cc1ncc(N2C(=O)C3(CCC3)N(c3ccc4[nH]ncc4c3)C2=S)cc1C(F)(F)F [Cpd 92, 5-[8-(1H-indazol-5-yl)-5-oxo-7-thioxo-6,8-diazaspiro[3.4]octan-6-yl]-3-(trifluoromethyl)pyridine-2-carbonitrile]	–	257	631	–	–	–	–	–	98.2	94.7	> 15100	1.3	> 15100	2.8
CN1CCN(CCCNC(=O)c2ccc(N3C(=S)N(c4cnc(C#N)c(C(F)(F)F)c4)C(=O)C34CCC4)cc2F)CC1 [Cpd 108, 4-[6-[6-cyano-5-(trifluoromethyl)-3-pyridyl]-5-oxo-7-thioxo-6,8-diazaspiro[3.4]octan-8-yl]-2-fluoro-N-[3-(4-methylpiperazin-1-yl)propyl]benzamide]	95.6	389	813	94.5	> 15100	2.5	> 15100	2.3	–	–	–	–	–	–
Cc1cncc(-c2ccc(N3C(=S)N(c4cnc(C#N)c(C)c4)C(=O)C34CCC4)cc2)c1 [Cpd 114, 3-methyl-5-[8-[4-(5-methyl-3-pyridyl)phenyl]-5-oxo-7-thioxo-6,8-diazaspiro[3.4]octan-6-yl]pyridine-2-carbonitrile]	–	355	240	–	–	–	–	–	97.8	98.7	> 15100	3.3	> 15100	0.7
N#Cc1ncc(N2C(=O)C3(CCC3)N(c3ccc(C(=O)NCCc4ccccn4)c(F)c3)C2=S)cc1C(F)(F)F [Cpd 15, 4-[6-[6-cyano-5-(trifluoromethyl)-3-pyridyl]-5-oxo-7-thioxo-6,8-diazaspiro[3.4]octan-8-yl]-2-fluoro-N-[2-(2-pyridyl)ethyl]benzamide]	102	46.8	209	103	> 15100	0	> 15100	-0.1	–	–	–	–	–	–
C#CCNC(=O)c1ccc(N2C(=S)N(c3cnc(C#N)c(C(F)(F)F)c3)C(=O)C23CCC3)cc1F [Cpd 111, 4-[6-[6-cyano-5-(trifluoromethyl)-3-pyridyl]-5-oxo-7-thioxo-6,8-diazaspiro[3.4]octan-8-yl]-2-fluoro-N-prop-2-ynyl-benzamide]	–	525	407	–	–	–	–	–	94.1	102	> 15100	2.7	> 15100	0.5
